Assay results as given in patent US20210395653A1, “COMPOSITIONS FOR TREATMENT AND METHODS FOR MAKING AND USING THE SAME” (ASP Global Manufacturing GmbH, priority 2018, published 2021).

Test: Solubility of added 5% CHG in commercial detergent compositions
Format: physicochemical

Solubility of CHG in detergent composition C2 (5% CHG added to C2): insoluble
Solubility of CHG in detergent composition C3 (5% CHG added to C3): insoluble
Solubility of CHG in detergent composition C6 (5% CHG added to C6): insoluble
Structure (SMILES): N=C(NCCCCCCNC(=N)NC(=N)Nc1ccc(Cl)cc1)NC(=N)Nc1ccc(Cl)cc1.O=C(O)[C@H](O)[C@@H](O)[C@H](O)[C@H](O)CO.O=C(O)[C@H](O)[C@@H](O)[C@H](O)[C@H](O)CO [CHG, chlorhexidine gluconate]
